Test [1] in a line: Binding affinity against delta opioid receptor […]. Also on record: species or system Mus musculus.
Test [2] addresses Mu-type opioid receptor (Mus musculus) (UniProt P42866). The experiment in a line: Ratio of binding affinity against mu to that of delta opioid receptor.
In another test the target is Mu-type opioid receptor (Mus musculus, UniProt P42866). The experiment in a line: Binding affinity against mu opioid receptor […].

SMILES strings stand for the structures.

Mu-type opioid receptor (Mus musculus), sequence (P42866 whole entry): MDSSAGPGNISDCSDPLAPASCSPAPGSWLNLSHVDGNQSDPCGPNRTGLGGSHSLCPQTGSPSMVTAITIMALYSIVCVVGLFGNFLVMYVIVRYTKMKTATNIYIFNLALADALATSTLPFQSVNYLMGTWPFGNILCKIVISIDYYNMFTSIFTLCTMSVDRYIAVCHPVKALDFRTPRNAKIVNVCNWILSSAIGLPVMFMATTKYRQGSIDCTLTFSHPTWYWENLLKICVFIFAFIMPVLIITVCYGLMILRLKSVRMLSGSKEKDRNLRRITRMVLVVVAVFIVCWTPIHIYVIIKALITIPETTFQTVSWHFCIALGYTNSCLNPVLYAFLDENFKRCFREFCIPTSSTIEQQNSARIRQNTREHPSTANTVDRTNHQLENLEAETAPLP
Mu-type opioid receptor, sequence (P42866 whole entry): as above

For orientation: Ki means a dissociation constant, usually derived from enzyme kinetics or from competition with a known ligand. Read a high Ki as weaker binding. In the case of `CCNC(=O)c1ccc(C(=C2CC3CCC(C2)N3Cc2ccoc2)c2cc(N)cc(C(=O)O)c2)cc1`, the Ki is 56 nM in test [1] and 9100 nM on Mu-type opioid receptor. The Ratio in test [2] stood at 160.
`CCNC(=O)c1ccc(C(=C2CC3CCC(C2)N3Cc2ccoc2)c2cccc(CCC(=O)O)c2)cc1`: the figures for the inhibition constant Ki (in test [1]; on Mu-type opioid receptor) were 0.78 nM and 3 nM, respectively. Moreover, the Ratio in test [2] turned out to be 3.9.
Turning to `CCNC(=O)c1ccc(C(=C2CC3CCC(C2)N3Cc2ccoc2)c2ccc(NC(C)=O)cc2)cc1`, the Ki in test [1] was 0.34 nM; on Mu-type opioid receptor it was 0.8 nM. Also, the Ratio in test [2] came out at 2.4.
Turning to `CCNC(=O)c1ccc(C(=C2CC3CCC(C2)N3Cc2ccoc2)c2cccc(F)c2)cc1`, the figures for the Ki (in test [1]; at Mu-type opioid receptor) were 0.4 nM and 3.7 nM, respectively. The Ratio in test [2] came to 9.3.
As for `CCNC(=O)c1ccc(C(=C2CC3CCC(C2)N3Cc2ccoc2)c2cccc(C(C)=O)c2)cc1`, the Ki in test [1] stood at 0.4 nM; on Mu-type opioid receptor it was 1.3 nM. Also, the Ratio in test [2] is 3.3.
Turning to `CCNC(=O)c1ccc(C(=C2CC3CCC(C2)N3Cc2ccoc2)c2cccc(CO)c2)cc1`, the Ki in test [1] worked out at 0.15 nM; at Mu-type opioid receptor, 0.81 nM. Also, the Ratio in test [2] was 5.4.
On the same counts, the results for `CCNC(=O)c1ccc(C(=C2CC3CCC(C2)N3Cc2ccsc2)c2cnccn2)cc1` are 17 nM, 2.5 nM and 0.15.
Consider `CCNC(=O)c1ccc(C(=C2CC3CCC(C2)N3Cc2cccs2)c2ccccn2)cc1`, for which the results for the inhibition constant (Ki) (in test [1]; at Mu-type opioid receptor) were 3.8 nM and 6 nM, respectively. Besides, the Ratio in test [2] is 1.6.
Consider `CCNC(=O)c1ccc(C(=C2CC3CCC(C2)N3Cc2ccsc2)c2ccc3c(c2)OCO3)cc1`, for which the results for the Ki (in test [1]; at Mu-type opioid receptor) were 3.1 nM and 1.3 nM, respectively. The Ratio in test [2] came to 0.42.
For `CCNC(=O)c1ccc(C(=C2CC3CCC(C2)N3Cc2ccoc2)c2ccc(F)cc2)cc1`, the Ki in test [1] came out at 1.4 nM; at Mu-type opioid receptor it was 1.7 nM. Further, the Ratio in test [2] is 1.2.

The values are drawn from ChEMBL document CHEMBL1138013, “Parallel methods for the preparation and SAR exploration of N-ethyl-4-[(8-alkyl-8-aza-bicyclo[3.2.1]oct-3-ylidene)-aryl-methyl]-benzamides, powerful mu and delta opioid agonists” (Bioorg Med Chem Lett, 2004).
